In publication PMC8580050, “Improvement of the antimicrobial potency, pharmacokinetic and pharmacodynamic properties of albicidin by incorporation of nitrogen atoms” (Chemical Science, 2021):
Values after ≈ are worked out from the molar mass of the structure shown.

What was measured:
[1] = system: S. aureus (ciprofloxacin susceptible clinical isolate); assay: MIC, extended panel; assay type: cell-based; conditions: Staphylococcus aureus
Procedure: (§1) 1.1.1 In vitro experiments
(§2) Determination of Minimal inhibitory concentrations (MIC)
(§3) Approved Standard M07-A9.1
(§4) CFU mL-1. […] Albicidin and […]
(§5) and serially diluted in DMSO (100%). […]
(§6) in 0.1 N HCL, respectively.
(§7) One row of each well plate served as a […]
(§8) sterility control (only MHB II-media). […]
(§9) adding 5 µL DMSO to several wells. […]
(§10) for growth inhibition by naked eye.
(§11) Microorganisms and Cell Cultures (DSMZ): […]
(§12) Dr. Werner (Robert-Koch-Institut, Wernigerode, Germany): […]
(§13) for the following 11 pathogenic isolates: […]

[2] = system: P. aeruginosa (ciprofloxacin susceptible clinical isolate); assay: MIC, extended panel; assay type: cell-based, Pseudomonas aeruginosa; conditions: Pseudomonas aeruginosa
Procedure: as §1, §2, §3, §4, §5, §6, §7, §8, §9, §10, §11, §12, §13

[3] = system: E. faecium (ciprofloxacin resistant clinical isolate); assay: microbe, parasite or virus in culture; assay type: cell-based; conditions: Enterococcus faecium
Procedure: as §1, §2, §3, §4, §5, §6, §7, §8, §9, §10, §11, §12, §13

[4] = system: P. aeruginosa (ciprofloxacin resistant clinical isolate); assay: microbe, parasite or virus in culture; assay type: cell-based; conditions: Pseudomonas aeruginosa
Procedure: as §1, §2, §3, §4, §5, §6, §7, §8, §9, §10, §11, §12, §13

[5] = physchem; conditions: 20 °C, kinetic from dmso stock
[6] = system: A. baumannii (ciprofloxacin resistant isolate); assay: microbe, parasite or virus in culture; assay type: cell-based, Acinetobacter baumannii; conditions: Acinetobacter baumannii
Procedure: as §1, §2, §3, §4, §5, §6, §7, §8, §9, §10, §11, §12, §13

[7] = system: K. pneumoniae (ciprofloxacin susceptible clinical isolate); assay: MIC, extended panel; assay type: cell-based, Klebsiella pneumoniae; conditions: Klebsiella pneumoniae
Procedure: as §1, §2, §3, §4, §5, §6, §7, §8, §9, §10, §11, §12

[8] = system: K. pneumoniae (ciprofloxacin resistant clinical isolate); assay: microbe, parasite or virus in culture; assay type: cell-based; conditions: Klebsiella pneumoniae
Procedure: as §1, §2, §3, §4, §5, §6, §7, §8, §9, §10, §11, §12

[9] = system: Salmonella Kentucky (ciprofloxacin resistant clinical isolate); assay: microbe, parasite or virus in culture; assay type: cell-based; conditions: Salmonella enterica
Procedure: as §1, §2, §3, §4, §5, §6, §7, §8, §9, §10, §11, §12

[10] = system: E. coli (ciprofloxacin resistant clinical isolate); assay: microbe, parasite or virus in culture; assay type: cell-based, Escherichia coli; conditions: Escherichia coli
Procedure: as §1, §2, §3, §4, §5, §6, §7, §8, §9, §10, §11, §12

[11] = target: DNA gyrase; conditions: read-out: half maximum inhibitory concentration (IC50); cited from earlier work
[12] = system: Salmonella Kentucky (ciprofloxacin susceptible clinical isolate); assay: MIC, extended panel; assay type: cell-based; conditions: Salmonella enterica
Procedure: as §1, §2, §3, §4, §5, §6, §7, §8, §9, §10, §11, §12

[13] = system: E. coli (ciprofloxacin susceptible clinical isolate); assay: MIC, extended panel; assay type: cell-based; conditions: Escherichia coli
Procedure: as §1, §2, §3, §4, §5, §6, §7, §8, §9, §10, §11, §12

[14] = system: E. faecium (ciprofloxacin susceptible clinical isolate); assay: microbe, parasite or virus in culture; conditions: Enterococcus faecium
[15] = system: S. aureus (ciprofloxacin resistant clinical isolate); assay: microbe, parasite or virus in culture; assay type: cell-based, Staphylococcus aureus; conditions: Staphylococcus aureus
Procedure: as §1, §2, §3, §4, §5, §6, §7, §8, §9, §10, §11, §12, §13

[16] = in vitro; conditions: plasma, pH 7.4
Procedure: Determination of plasma stability
Human and murine plasma aliquots (Sigma-Aldrich, Taufkirchen, Germany) were thawed and subsequently centrifuged at 3000 rpm for 10 min at 4°C. Resulting supernatant was diluted in the same volume of phosphate buffer (pH 7.4) to obtain a plasma concentration of 50% (v/v). Stock solutions of […]
concentration of 20 µM (5% DMSO). Following incubation at 37°C ice-cold methanol containing 30% […]
were centrifuged at 4000 rpm for 20 min at 4°C and 100 µL of supernatant were directly transferred to a fresh MS-vial. Samples were analyzed by LC/MS-MS experiments. Quantification of remaining compounds was performed by an external calibration curve of standard solutions in the range of […]

[17] = target: T1, E. coli DNA gyrase (Escherichia coli, UniProt P0AES4+P0AES6); assay: E. coli gyrase supercoiling inhibition assay; assay type: biochemical; parameters: key: ↑: for stronger inhibition; ≈: for equal inhibition; ↓: for diminished inhibition compared to albicidin 1; conditions: constant concentration of 45 nM, compared to albicidin 1
T1 construct: purchased inspiralis Limited, Norwich, UK
Procedure: Escherichia coli Gyrase Supercoiling Inhibition Assay
loaded on an agarose gel.
2-15. […] Addition of DNA
All derivatives were tested at a concentration of […]

[18] = system: E. coli BW25113; assay: MIC determination (broth microdilution); assay type: cell-based; conditions: Escherichia coli
Procedure: as §1, §2, §3, §4, §5, §6, §7, §8, §9, §10, §11

[19] = system: B. subtilis DSM 10; assay: MIC determination (broth microdilution); assay type: cell-based; conditions: Bacillus subtilis, DSM10
Procedure: as §1, §2, §3, §4, §5, §6, §7, §8, §9, §10, §11

[20] = system: M. phlei DSM 750; assay: MIC determination (broth microdilution); assay type: cell-based, Mycobacterium phlei; conditions: Mycolicibacterium phlei, DSM750
Procedure: as §1, §2, §3, §4, §5, §6, §7, §8, §9, §10

[21] = system: E. coli DSM 1116; assay: MIC determination (broth microdilution); assay type: cell-based, Escherichia coli; conditions: Escherichia coli, DSM1116
Procedure: as §1, §2, §3, §4, §5, §6, §7, §8, §9, §10, §11

[22] = Formulation studies; assay type: physicochemical; conditions: DMSO/PEG400 (10 : 90), 10 mg ml-1
Procedure: of preclinical formulations in a final concentration of 10 mg ml-1. All experimental procedures were carried out in cooperation with Pharmacelsus GmbH (Saarbrucken, Germany) according to Table S6.
1.1.2 Tolerability assessment and pharmacokinetic study
In vivo tolerability studies as well as determinations of pharmacokinetic parameters were carried out in cooperation with Pharmacelsus GmbH (Saarbrucken, Germany).
For tolerability assessment adult male CD-1 mice (RjOrl:SWISS, 7 weeks old) were purchased from Janvier Labs (France). For pharmacokinetic studies 6 weeks old, male CD-1 mice (RjOrl:SWISS, Janvier Labs, France) were used. The animals were allowed to acclimatize for at least seven days before the start of experiments. Housing was realized in a temperature-controlled room (20-24°C) and mice were exposed to a 12h light/dark cycle. Mice had access to food and water ad libitum throughout the study.
All experimental procedures were approved by and conducted in accordance with the regulations of local Animal Welfare authorities (Landesamt für Gesundheit und Verbraucherschutz, Abteilung Lebensmittel- und Veterinärwesen, Saarbrücken, Germany).

[23] = Cell proliferation assay (HepG2 cells); conditions: human
Procedure: (§14) Cell proliferation assay (HepG2 cells)
(§15) The assay was performed by the company Eurofins (Taiwan). Cytotoxicity was representatively
(§16) according to a protocol by Ansar et al.27 This is in line with previously published cytotoxicity data on
(§17) GI = growth inhibition; TGI = total growth inhibition; LC = lethal concentration

[24] = system: HepG2 cells; assay: in vitro; conditions: human
Procedure: as §14, §15, §16, §17

[25] = system: M. luteus DSM1790; assay: MIC determination (broth microdilution); assay type: cell-based, Micrococcus luteus; conditions: Micrococcus luteus, DSM1790
Procedure: as §1, §2, §3, §4, §5, §6, §7, §8, §9, §10, §11

[26] = system: E. coli DSM 1116 + 50% Human Serum; assay: MIC determination in presence of 50% human serum; assay type: cell-based; conditions: Escherichia coli, DSM1116
Source text: This investigation was completed by assessment of the antibacterial activity in presence of human plasma (50%) (Table 1), since high plasma protein binding can severely impair antibacterial activity and thus efficacy.
as §1, §2, §3, §4, §5, §6, §7, §8, §9, §10, §11

[27] = system: S. Typhimurium TA100; assay: MIC determination (broth microdilution); assay type: cell-based, Salmonella typhimurium; conditions: Salmonella enterica, TYPHIMURIUM
Procedure: as §1, §2, §3, §4, §5, §6, §7, §8, §9, §10, §11

[28] = Pharmacokinetic study, i.v.; conditions: 50 mg kg^−1 i.v., after 24 h
[29] = in vivo; conditions: male, CD-1, mouse, whole blood, iv, 50 mg/kg

T1 sequence (P0AES4 whole entry, one chain of several): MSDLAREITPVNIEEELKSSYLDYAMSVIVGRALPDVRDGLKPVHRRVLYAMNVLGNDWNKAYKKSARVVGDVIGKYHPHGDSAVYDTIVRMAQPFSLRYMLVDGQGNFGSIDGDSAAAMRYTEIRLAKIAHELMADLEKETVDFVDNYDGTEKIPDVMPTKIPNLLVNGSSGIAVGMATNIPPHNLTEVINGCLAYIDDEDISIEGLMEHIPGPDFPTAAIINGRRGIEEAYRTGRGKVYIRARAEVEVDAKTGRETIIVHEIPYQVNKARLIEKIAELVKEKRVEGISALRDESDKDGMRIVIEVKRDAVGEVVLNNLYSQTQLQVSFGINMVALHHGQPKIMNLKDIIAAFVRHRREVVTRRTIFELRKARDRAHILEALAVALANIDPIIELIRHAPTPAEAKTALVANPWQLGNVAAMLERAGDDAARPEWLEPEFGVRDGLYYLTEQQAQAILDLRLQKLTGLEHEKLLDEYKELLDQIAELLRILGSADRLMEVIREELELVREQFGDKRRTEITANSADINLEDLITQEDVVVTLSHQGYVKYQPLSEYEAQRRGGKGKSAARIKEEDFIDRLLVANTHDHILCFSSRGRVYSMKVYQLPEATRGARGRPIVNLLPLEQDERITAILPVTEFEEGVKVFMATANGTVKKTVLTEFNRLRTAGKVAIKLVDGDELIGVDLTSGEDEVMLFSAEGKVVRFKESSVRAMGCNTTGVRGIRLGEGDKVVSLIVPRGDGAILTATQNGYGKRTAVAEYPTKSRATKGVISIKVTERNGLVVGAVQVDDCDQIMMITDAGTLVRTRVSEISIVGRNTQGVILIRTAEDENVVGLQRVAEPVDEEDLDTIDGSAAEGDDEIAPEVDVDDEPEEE

SMILES | MIC [1] [µg/mL] | MIC [2] [µg/mL] | MIC [3] [µg/mL] | MIC [4] [µg/mL] | MIC [6] [µg/mL] | MIC [7] [µg/mL] | MIC [8] [µg/mL] | MIC [9] [µg/mL] | MIC [10] [µg/mL] | MIC [12] [µg/mL] | MIC [13] [µg/mL] | MIC [14] [µg/mL] | MIC [15] [µg/mL] | half-life at 20 µM ([16]; human) [h] | half-life at 20 µM ([16]; mouse) [h] | further results
COc1c(NC(=O)c2ccc(NC(=O)c3ccc(NC(=O)[C@H](CC#N)NC(=O)c4ccc(NC(=O)/C(C)=C/c5ccc(O)cc5)cc4)cc3)c(OC)c2O)ccc(C(=O)O)c1O [Compound 1, albicidin] | 2 (≈ 2.37 µM) | 1 (≈ 1.19 µM) | 16 (≈ 19 µM) | 2 (≈ 2.37 µM) | 2 (≈ 2.37 µM) | ≥ 128 | ≥ 128 | 0.25 (≈ 0.297 µM) | 0.125 (≈ 0.148 µM) | 0.063 (≈ 0.0747 µM) | 0.031 (≈ 0.0368 µM) | 0.25 (≈ 0.297 µM) | 4 (≈ 4.75 µM) | 1 | 0.5 | solubility at 20 h ([5]; pH 7.4, aqueous with cosolvent or surfactant or cyclodextrin): 5.53 µg/mL (≈ 6.56 µM); solubility kinetic at 20 h ([5]; pH 7.5, aqueous with cosolvent or surfactant or cyclodextrin): 5.53 µg/mL (≈ 6.56 µM); IC50 [11]: 0.04 µM
COc1c(NC(=O)c2ccc(NC(=O)c3ccc(NC(=O)[C@H](Cc4c[nH]nn4)NC(=O)c4ccc(NC(=O)/C(C)=C/c5ccc(O)cc5)cc4)cc3)c(OC)c2O)ccc(C(=O)O)c1O [Compound 2, AzaHis-albicidin] | 0.25 (≈ 0.283 µM) | 4 (≈ 4.52 µM) | 64 (≈ 72.3 µM) | 8 (≈ 9.04 µM) | 2 (≈ 2.26 µM) | 16 (≈ 18.1 µM) | ≥ 128 | 0.125 (≈ 0.141 µM) | 0.063 (≈ 0.0712 µM) | 0.063 (≈ 0.0712 µM) | 0.016 (≈ 0.0181 µM) | 0.25 (≈ 0.283 µM) | 0.5 (≈ 0.565 µM) | > 4 | 1.58 | E. coli gyrase inhibition [17]: ≈; MIC [18]: 0.016 µg/mL (≈ 0.0181 µM); MIC [19]: 0.125 µg/mL (≈ 0.141 µM); MIC [20]: 2 µg/mL (≈ 2.26 µM); MIC [21]: 0.016 µg/mL (≈ 0.0181 µM); appearance in formulation [22]: clear solution; CC50 [23]: > 16 µM; GI50 [23]: > 16 µM; TGI (total growth inhibition) [24]: > 16 µM; MIC [25]: 1 µg/mL (≈ 1.13 µM); MIC [26]: 2 µg/mL; MIC [27]: 0.016 µg/mL (≈ 0.0181 µM); plasma level as multiple of MIC for E. coli [28]: higher than 5 times MIC; half-life [29]: 10.1 h
